Reference: US20120022070A1, “Heat Shock Protein 90 Inhibitors, Methods Of Preparing Same, And Methods For Their Use” (EMORY UNIVERSITY, priority 2008, published 2012)
Where two headings read alike, the source gives them in different places.

What was measured:
[1] = tested on: tumor specific Hsp90 (NCI-N417 cell lysate); assay: Hsp90 binding FP competition assay; design: species or system human; details: Table 2, GM-cy3B 5 nM
Description: There are several assays that have been developed to identify novel Hsp90 inhibitors based on the interaction of small molecules with recombinant Hsp90 protein, either yeast or human. To measure a therapeutically significant state of Hsp90, an FP assay that uses human cancer cell lysates instead of recombinant protein (Du, Moulick et al. J. Biomol. Screen, 2007, 12, 915-24) was utilized. It probes the interaction of small molecules with tumor-specific Hsp90 and may therefore lead to inhibitors that are not only selective for cancer cells but also specific for a particular malignancy.
The dose-response effect of the compounds was tested in Hsp90 binding FP competition assays to obtain the IC50 of the compounds. The Hsp90 FP competition assay was performed in 384-well black plate using the small-cell lung carcinoma (SCLC) cell line NCI-N417 as a source of tumor specific Hsp90 and the Cy3B-labeled geldanamycin (GM-cy3B) as the FP ligand. The compound was dissolved in DMSO and added at several concentrations to the reaction buffer containing both GM-cy3B (5 nM) and NCI-N417 cell lysate (1 μg/well) in a final volume of 50 μL. Free GM-cy3B (5 nM) and bound GM-cy3B with NCI-N417 cell lysate (5 nM GM-cy3B and 1 μg/well of NCI-N417 cell lysate) were included as controls in each plate. After incubating at room temperature for 2 to 16 hours, the polarization values were measured and expressed as millipolarization (mP) units using Analyst HT plate reader (Molecular Devices). The competitive efficiency of the compounds were expressed as a percentage of control and calculated according to the following equation:
% of control=((mPc−mPf)/(mPb−mPf))×100
where mPc is the recorded mP from compound wells, mPf is the average recorded mP from GM-cy3B-only wells, and mPb is the average recorded mP from wells containing both GM-cy3B and NCI-N417 lysate. IC50 values were determined using a nonlinear regression analysis as implemented in Prism 4.0 (Graphpad Software).

[2] = tested on: Her2 protein in SKBr3 breast cancer cells; assay: Cell-based Her2 degradation assay by Cytoblot; details: Homo sapiens, SK-BR-3, Table 2, values with asterisk, 24 hours
Description: Cellular Her2 level after compound treatment was also monitored by microtiter-based Her2 degradation assay, Cytoblot assay (Huezo, Vilenchik et al. Chem. Biol., 2003, 10, 629-634). This is a cell-based assay that enables the quantitative analysis of intracellular levels of Her2 protein.
The human breast cancer cell lines SKBr3 were maintained in RPMI1640 medium supplemented with 10% FBS. 3000 cells in 100 μl of growth medium were plated per well in black, clear-bottom microtiter plates (Corning) and allowed to attach for at least 24 hours at 37° C. and 5% CO2. Compounds at different doses or vehicle (DMSO) were carefully added to the wells and incubated for 24 hours. The cells were washed twice with ice-cold Tris buffer saline (TBS) containing 0.1% Tween 20 (TBST) and fixed with ice-cold methanol. After washing with TBST, the plate was incubated at RT for 1 hour with SuperBlock (Pierce 37535) and overnight at 4° C. with the anti-Her-2 antibody (Santa Cruz Biotechnology). The plate was then washed with TBST and incubated at RT for 2 hours with an anti-rabbit HRP-linked antibody (Sigma A0545). The chemiluminescent substrate solution (Pierce 38040) was added and the plate was read 5 minutes later in an Analyst HT plate reader (Molecular Devices). Luminescence readings resulting from compound-treated cells versus untreated cells (vehicle treated) were quantified and plotted against compound concentrations to give the IC50 values (defined as concentration of compound required to degrade 50% of total Her2).

[3] = tested on: SKBR3 breast cancer cells; assay: Cancer cell growth inhibition assay (CellTiter-Blue); assay type: cell-based; details: Homo sapiens, SK-BR-3, Table 2, 96 hours
Description: The effects of the compounds on cancer cell growth were determined using the CellTiter-Blue cell viability assay (Promega). CellTiter-Blue® Cell Viability is based on the ability of living cells to convert a redox dye (resazurin) into a fluorescent end product (resorufin).
The SKBR3 breast cancer cells were plated in 384-well microtiter plates (Costar) and allowed to attach overnight. After treatment with either compounds or vehicle (DMSO) for 96 hours, the cells were measured for their viability by CellTiter-Blue. Briefly, 10 μl of CelTiter-Blue were added to each well in 384-well plates and incubated at 37° C. for 4 hours. The fluorescence intensity (FI) was measured using the Analyst HT plate reader (Molecular Devices) with an excitation at 545 nm and emission at 595 nm. The IC50 was calculated as the compound concentration that inhibits cell viability by 50% compared with vehicle control wells. The IC50 values were determined as described above.

[4] = tested on: Her2 protein in MCF-7 breast cancer cells; assay: Cell-based Her2 degradation assay by Western Blot; details: Homo sapiens, read-out: IC50, Her2 degradation WB
Description: Addition of Hsp90 inhibitors to cancer cells induces the proteasomal degradation of a subset of proteins involved in signal transduction such as Raf1 kinase, Akt and certain transmembrane tyrosine kinases such as Her2. Thus, Her2 degradation in cells is a functional read-out of Hsp90 inhibition. Correlation between Hsp90 binding and Her2 degradation in cancer cells is indicative of a selective biological effect in these cells via Hsp90.
A Western blot-based assay was used to measure the cellular level of Her2 protein in MCF-7 breast cancer cell lysates collected after 24 hours of compound treatment. […] Then 2×10^5 cells were seeded in 24 well plates in 500 μl PRMI1640 medium and allowed to attach overnight. The compounds were dissolved in DMSO, added to the wells, and incubated for 24 hours. The cells were washed using ice-cold phosphate-buffered saline (PBS) and lysed in 1% NP40 lysis buffer (10 mM HEPES, pH 7.4, 150 mM NaCl, 1% Nonident P-40, 5 mM Pyrophosphate, 5 mM NaF, 2 mM Orthovanadate, 10 ug/ml Aprotinin, 10 ug/ml Leupeptin, 1 mM PMSF). After boiling with 6×SDS sample buffer, the cell lysates were separated by SDS-PAGE and transferred to nitrocellulose membrane. The membranes were blocked with 5% milk in tris-buffered saline buffer.

[5] = MCF7, Table 2, values without asterisk, MCF-7 cells, 24 hours

COc1ccc(NC2=CC(=O)C(=O)c3ccccc32)cc1OC [Compound 61]
IC50 [1]: 390 nM | IC50 [2]: 4830 nM | IC50 [3]: 3180 nM

COc1ccc(NC2=CC(=O)C(=O)c3ccccc32)c(OC)c1 [Compound 53]
IC50 [1]: 130 nM | IC50 [4, 5]: 2500 to 5000 nM | IC50 [2]: 3940 nM | IC50 [3]: 1420 nM

O=C1C=C(Nc2ccc3c(c2)OCO3)c2ccccc2C1=O [Compound 55]
IC50 [1]: 40 nM | IC50 [4, 5]: 2500 to 5000 nM | IC50 [2]: 3760 nM | IC50 [3]: 3170 nM

COc1ccc(S(=O)(=O)N2CCN(C3=CC(=O)C(=O)c4ccccc43)CC2)cc1OC [Compound 64]
IC50 [1]: 570 nM | IC50 [2]: 29100 nM | IC50 [3]: > 20000 nM

O=C1C=C(N2CCC(O)(c3ccc(Cl)cc3)CC2)c2ccccc2C1=O [Compound 58]
IC50 [1]: 540 nM | IC50 [2]: 1680 nM | IC50 [3]: 430 nM

COc1ccccc1NC1=CC(=O)C(=O)c2ccccc21 [Compound 50]
IC50 [1]: 90 nM | IC50 [4, 5]: 1250 to 2500 nM | IC50 [2]: 3820 nM | IC50 [3]: 1240 nM

O=C1C=C(N2CCN(S(=O)(=O)c3cc(Cl)cc(Cl)c3O)CC2)c2ccccc2C1=O [Compound 63]
IC50 [1]: 1310 nM | IC50 [2]: 26100 nM | IC50 [3]: > 20000 nM

COc1ccc(NC2=CC(=O)C(=O)c3ccccc32)cc1 [Compound 51]
IC50 [1]: 70 nM | IC50 ([4]; MCF7, 24 h): 1250 to 2500 nM | IC50 [2]: 3620 nM | IC50 [3]: 16000 nM

O=C1C=C(N2CCN(c3cccc4ccccc34)CC2)c2ccccc2C1=O [Compound 57]
IC50 [1]: 890 nM | IC50 [2]: 3900 nM | IC50 [3]: 220 nM

COc1cc(NC2=CC(=O)C(=O)c3ccccc32)cc(OC)c1 [Compound 54]
IC50 [1]: 10 nM | IC50 [4, 5]: 2500 to 5000 nM | IC50 [2]: 4170 nM | IC50 [3]: 7460 nM

O=C1C=C(N2CCC(Cc3ccccc3)CC2)c2ccccc2C1=O [Compound 45]
IC50 [1]: 230 nM | IC50 [4, 5]: 1250 to 2500 nM | IC50 [2]: 2220 nM | IC50 [3]: 950 nM

COc1cc(Br)c(NC2=CC(=O)C(=O)c3ccccc32)cc1OC [Compound 66]
IC50 [1]: 610 nM | IC50 [2]: 22400 nM | IC50 [3]: 10900 nM

O=C1C=C(N2CCN(Cc3cccc4ccccc34)CC2)c2ccccc2C1=O [Compound 59]
IC50 [1]: 770 nM | IC50 [2]: 4270 nM | IC50 [3]: 620 nM

COc1cc(NC2=CC(=O)C(=O)c3ccccc32)cc(OC)c1OC [Compound 60]
IC50 [1]: 180 nM | IC50 [2]: 8580 nM | IC50 [3]: 2420 nM

CC(C)CN(CC(C)C)C1=CC(=O)C(=O)c2ccccc21 [Compound 49]
IC50 [1]: 1860 nM | IC50 [4, 5]: 2500 to 5000 nM | IC50 [2]: 18600 nM | IC50 [3]: 2750 nM

O=C1C=C(N2CCN(Cc3cccc(C(F)(F)F)c3)CC2)c2ccccc2C1=O [Compound 56]
IC50 [1]: 530 nM | IC50 [2]: 1900 nM | IC50 [3]: 300 nM
